According to ChEMBL document CHEMBL1777768, “Comparative CYP1A1 and CYP1B1 substrate and inhibitor profile of dietary flavonoids” (Bioorg Med Chem, 2011):
Calls of active or inactive are those of the source. No cut-off for these calls is given here.

Experiments:
Cytochrome P450 1A1 [1] = target: T1, Cytochrome P450 1A1 (Homo sapiens, UniProt P04798); experiment: Inhibition of CYP1A1 EROD activity assessed as inhibition of deethylation of 7-ethoxyresorufin to resorufin; type: ADME
T1 sequence (P04798 whole entry): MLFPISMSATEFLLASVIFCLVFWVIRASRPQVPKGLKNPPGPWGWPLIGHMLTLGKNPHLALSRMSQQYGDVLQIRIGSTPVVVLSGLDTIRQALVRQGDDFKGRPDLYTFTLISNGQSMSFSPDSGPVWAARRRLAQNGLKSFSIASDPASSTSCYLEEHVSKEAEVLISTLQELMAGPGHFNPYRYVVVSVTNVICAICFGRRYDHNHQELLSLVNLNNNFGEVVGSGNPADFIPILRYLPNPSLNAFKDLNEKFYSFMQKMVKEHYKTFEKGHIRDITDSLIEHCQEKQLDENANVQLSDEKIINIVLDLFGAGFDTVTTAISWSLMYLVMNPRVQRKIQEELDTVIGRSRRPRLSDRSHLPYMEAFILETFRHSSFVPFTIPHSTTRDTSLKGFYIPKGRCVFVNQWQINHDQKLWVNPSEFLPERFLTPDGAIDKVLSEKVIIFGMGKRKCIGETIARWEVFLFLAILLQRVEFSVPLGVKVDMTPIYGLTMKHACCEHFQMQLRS

Cytochrome P450 1B1 = target: T2, Cytochrome P450 1B1 (Homo sapiens, UniProt Q16678); experiment: Inhibition of CYP1B1 EROD activity assessed as inhibition of deethylation of 7-ethoxyresorufin to resorufin; type: ADME
T2 sequence (Q16678 whole entry): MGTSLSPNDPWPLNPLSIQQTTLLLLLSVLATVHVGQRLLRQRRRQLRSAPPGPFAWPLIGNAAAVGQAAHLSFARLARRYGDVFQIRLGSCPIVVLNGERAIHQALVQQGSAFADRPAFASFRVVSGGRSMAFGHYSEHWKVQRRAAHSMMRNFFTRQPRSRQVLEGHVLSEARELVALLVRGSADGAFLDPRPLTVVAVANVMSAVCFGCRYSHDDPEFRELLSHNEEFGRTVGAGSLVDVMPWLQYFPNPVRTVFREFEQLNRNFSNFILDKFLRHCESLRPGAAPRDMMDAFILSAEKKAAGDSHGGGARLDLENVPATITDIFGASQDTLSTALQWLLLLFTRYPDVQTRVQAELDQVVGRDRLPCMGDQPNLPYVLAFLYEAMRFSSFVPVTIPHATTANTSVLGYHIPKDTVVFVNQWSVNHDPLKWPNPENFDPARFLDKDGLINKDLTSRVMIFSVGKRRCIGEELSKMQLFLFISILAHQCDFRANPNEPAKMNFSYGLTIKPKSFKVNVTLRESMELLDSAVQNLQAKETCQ

MDA-MB-468 [2] = experiment: Anticancer activity against CYP1 expressing human MDA-MB-468 cells by MTT assay; type: functional, cell-based
MCF-10A = experiment: Anticancer activity against non-CYP1 expressing human MCF10A cells by MTT assay; type: functional, cell-based
MDA-MB-468 [3] = experiment: Activation factor, ratio of IC50 for non-CYP1 expressing human MCF10A to IC50 for CYP1 expressing human MDA-MB-468 cells; type: functional
Cytochrome P450 1A1 [4] = target: T1, Cytochrome P450 1A1; experiment: Activity at recombinant CYP1A1 assessed as E5M1 metabolite elution time at 10 uM by HPLC analysis; type: ADME; settings: recombinant enzyme
[5] = target: Cytochrome P450 1B1 (Homo sapiens) (UniProt Q16678); experiment: Activity at recombinant CYP1B1 assessed as E5M1 metabolite elution time at 10 uM by HPLC analysis; settings: recombinant enzyme
CYP1A1 = target: T3, CYP1A1 (Homo sapiens, UniProt P04798); experiment: Activity at CYP1A1 in recombinant human CYP1A1 microsomes assessed as parent compound remaining after 20 mins by HPLC analysis
T3 sequence (P04798 whole entry): T1 sequence (P04798 whole entry)

Cytochrome P450 1A1 [6] = target: T1, Cytochrome P450 1A1; experiment: Activity at recombinant CYP1A1 assessed as apigenin production at 10 uM after 20 mins by HPLC analysis; type: ADME; settings: recombinant enzyme
Cytochrome P450 1A1 [7] = target: T1, Cytochrome P450 1A1; experiment: Activity at recombinant CYP1A1 assessed as scutellarein production at 10 uM after 20 mins by HPLC analysis; type: ADME; settings: recombinant enzyme
Cytochrome P450 1A1 [8] = target: T1, Cytochrome P450 1A1; experiment: Activity at recombinant CYP1A1 assessed as luteolin production at 10 uM after 20 mins by HPLC analysis; type: ADME; settings: recombinant enzyme
Cytochrome P450 1A1 [9] = target: T1, Cytochrome P450 1A1; experiment: Activity at recombinant CYP1A1 assessed as AM1 metabolite retention time at 10 uM by HPLC analysis; type: ADME; settings: recombinant enzyme
Cytochrome P450 1A1 [10] = target: T1, Cytochrome P450 1A1; experiment: Activity at recombinant CYP1A1 assessed as AM1 metabolite production at 10 uM after 20 mins by HPLC analysis; type: ADME; settings: recombinant enzyme

SMILES: COc1ccc(-c2cc(=O)c3c(OC)c(OC)c(OC)cc3o2)cc1O
- Ki (Cytochrome P450 1A1 [1]): 630 nM
- Ki (Cytochrome P450 1B1): 670 nM
- Activity (MDA-MB-468 [2]): Active
- Activity (MCF-10A): inactive
- Ratio IC50 (MDA-MB-468 [3]): 100
- Time (Cytochrome P450 1A1 [4]): 8.9 min
- Time [5]: 8.9 min
- remaining at 20 min (CYP1A1): 20.4%

SMILES: COc1ccc(-c2cc(=O)c3c(O)cc(O)cc3o2)cc1 [ACACETIN]
- Activity (Cytochrome P450 1A1 [6]): Active
- Activity (Cytochrome P450 1A1 [7]): Active
- Activity (Cytochrome P450 1A1 [8]): Active
- Time (Cytochrome P450 1A1 [9]): 11.3 min
- Activity (Cytochrome P450 1A1 [10]): Active
- remaining at 20 min (CYP1A1): 15.9%

SMILES: O=c1cc(-c2ccccc2)oc2cc(O)c(O)c(O)c12 [BAICALEIN]
- Ki (Cytochrome P450 1A1 [1]): 1220 nM
- Ki (Cytochrome P450 1B1): 260 nM
- Ratio IC50 (MDA-MB-468 [3]): 1.7

SMILES: O=c1cc(-c2ccccc2)oc2cc(O)cc(O)c12 [CHRYSIN]
- remaining at 20 min (CYP1A1): 15.9%

SMILES: COc1cc2oc(-c3ccc(O)c(O)c3)cc(=O)c2c(O)c1OC [CIRSILIOL]
- Ki (Cytochrome P450 1A1 [1]): > 800 nM
- Ki (Cytochrome P450 1B1): > 800 nM
- Ratio IC50 (MDA-MB-468 [3]): 8
- remaining at 20 min (CYP1A1): 16.7%

SMILES: COc1ccc(-c2cc(=O)c3c(O)c(OC)c(OC)cc3o2)cc1O [EUPATORIN]
- Ki (Cytochrome P450 1A1 [1]): 210 nM
- Ki (Cytochrome P450 1B1): 35 nM
- Ratio IC50 (MDA-MB-468 [3]): 100
- remaining at 20 min (CYP1A1): 47.8%

SMILES: COc1cc(O)c2c(=O)cc(-c3ccc(O)cc3)oc2c1 [GENKWANIN]
- Ki (Cytochrome P450 1A1 [1]): > 2340 nM
- Ki (Cytochrome P450 1B1): > 2340 nM
- Ratio IC50 (MDA-MB-468 [3]): 47
- remaining at 20 min (CYP1A1): 34%

SMILES: O=c1c(O)c(-c2cc(O)c(O)c(O)c2)oc2cc(O)cc(O)c12 [MYRICETIN]
- Ki (Cytochrome P450 1A1 [1]): 370 nM
- Ki (Cytochrome P450 1B1): 27 nM

SMILES: O=c1cc(-c2ccc(O)cc2)oc2cc(O)c(O)c(O)c12 [SCUTELLAREIN]
- Ki (Cytochrome P450 1A1 [1]): 1640 nM
- Ki (Cytochrome P450 1B1): 220 nM
- Ratio IC50 (MDA-MB-468 [3]): 3.3
- remaining at 20 min (CYP1A1): 12.6%

SMILES: COc1ccc(-c2cc(=O)c3c(OC)c(OC)c(OC)cc3o2)cc1OC [SINENSETIN]
- Ratio IC50 (MDA-MB-468 [3]): 325
- remaining at 20 min (CYP1A1): 68.9%
